Measured values published in patent US11708348B2, “Protease inhibitors for treatment of coronavirus infections” (The Scripps Research Institute, priority 2021, dated 2023).
Like-named read-outs stand apart in the source and are kept apart here.

Test system: SARS-CoV-2 strain USA-WA1/2020
Assay: microbe, parasite or virus in culture
Assay type: cell-based
Settings: Severe acute respiratory syndrome coronavirus 2, HeLa-ACE2, 24 h, read-out: EC50, uM (Hela)
[1] = HeLa-ACE2 cells, SARS-CoV-2 infection, 24 h, class symbols
[2] = HeLa-ACE2 cells, SARS-CoV-2 infection, 24 h

SMILES | EC50 [1] [µM] | EC50 [2] [µM] | further results
COc1cccc2[nH]c(C(=O)N[C@@H](CC(C)C)C(=O)N[C@@H](C[C@@H]3CCCNC3=O)C(=O)COC(F)(F)F)cc12 [Compound 229, 4-methoxy-N-((S)-4-methyl-1-oxo-1-(((S)-3-oxo-1-((S)-2-oxopiperidin-3-yl)-4-(trifluoromethoxy)butan-2-yl)amino)pentan-2-yl)-1H-indole-2-carboxamide] | < 0.05 |  | 
C=C[C@@H]1C[C@]1(NC(=O)c1cc2cc(F)ccc2[nH]1)C(=O)N[C@@H](C[C@@H]1CCNC1=O)C(=O)COC(F)(F)F [Compound 259, 5-fluoro-N-((1R,2S)-1-(((S)-3-oxo-1-((S)-2-oxopyrrolidin-3-yl)-4-(trifluoromethoxy)butan-2-yl)carbamoyl)-2-vinylcyclopropyl)-1H-indole-2-carboxamide] |  |  | EC50 (HeLa-ACE2 cells, SARS-CoV-2 infection, 24 h, bound printed in cell): > 1 µM
CC[C@@H](O)C(=O)N1[C@H](C(=O)N[C@@H](C[C@@H]2CCNC2=O)C(=O)COC(F)(F)F)C[C@@H]2CCCC[C@@H]21 [Compound 373, (2S,3aS,7aS)-1-((R)-2-hydroxybutanoyl)-N-((S)-3-oxo-1-((S)-2-oxopyrrolidin-3-yl)-4-(trifluoro-methoxy)butan-2-yl)octahydro-1H-indole-2-carboxamide] | 0.2 to 0.5 |  | 
CC(C)C[C@H](NC(=O)C(=O)Nc1ccc(Br)cc1F)C(=O)N[C@@H](C[C@@H]1CCNC1=O)C(=O)COc1c(F)c(F)cc(F)c1F [Compound 96, N1-(4-bromo-2-fluorophenyl)-N2-((S)-4-methyl-1-oxo-1-(((S)-3-oxo-1-((S)-2-oxopyrrolidin-3-yl)-4-(2,3,5,6-tetrafluorophenoxy)butan-2-yl)amino)pentan-2-yl)oxalamide] |  |  | EC50: 0.05 to 0.2 µM
CC(C)(F)C[C@H](O)C(=O)N1CC2(CC2)C[C@H]1C(=O)N[C@@H](C[C@@H]1CCNC1=O)C(=O)COC(F)(F)F [Compound 350, (S)-5-((S)-4-fluoro-2-hydroxy-4-methylpentanoyl)-N-((S)-3-oxo-1-((S)-2-oxopyrrolidin-3-yl)-4-(trifluoromethoxy)butan-2-yl)-5-azaspiro[2.4]-heptane-6-carboxamide] | 0.05 to 0.2 |  | 
C[C@H](C(=O)N1CC2(CC2)C[C@H]1C(=O)N[C@@H](C[C@@H]1CCNC1=O)C(=O)COC(F)(F)F)c1ccccc1 [Compound 628, (S)-N-((S)-3-oxo-1-((S)-2-oxopyrrolidin-3-yl)-4-(trifluoromethoxy)butan-2-yl)-5-((S)-2-phenylpropanoyl)-5-azaspiro[2.4]heptane-6-carboxamide] |  | 0.05 to 0.2 | 
Cc1ccccc1NC(=O)C(=O)NC(CC1CCOCC1)C(=O)N[C@@H](C[C@@H]1CCNC1=O)C(=O)COC(F)(F)F (stereo partly drawn) [Compound 524, N1-(1-oxo-1-(((S)-3-oxo-1-((S)-2-oxopyrrolidin-3-yl)-4-(trifluoromethoxy)butan-2-yl)amino)-3-(tetrahydro-2H-pyran-4-yl)propan-2-yl)-N2-(o-tolyl)oxalamide] |  | < 0.05 | 
O=C1NCC[C@H]1C[C@H](NC(=O)[C@@H]1CC2(CC2)CN1C(=O)C(O)c1cccnc1)C(=O)COC(F)(F)F (stereo partly drawn) [Compound 419, (6S)-5-(2-hydroxy-2-(pyridin-3-yl)acetyl)-N-((S)-3-oxo-1-((S)-2-oxopyrrolidin-3-yl)-4-(trifluoromethoxy)butan-2-yl)-5-azaspiro[2.4]heptane-6-carboxamide] |  | 0.5 to 1 | 
CC(C)C[C@H](NC(=O)C1CCCNC1=O)C(=O)N[C@@H](C[C@@H]1CCNC1=O)C(=O)COC(F)(F)F (stereo partly drawn) [Compound 190, N-((S)-4-methyl-1-oxo-1-(((S)-3-oxo-1-((S)-2-oxopyrrolidin-3-yl)-4-(trifluoromethoxy)butan-2-yl)amino)pentan-2-yl)-2-oxopiperidine-3-carboxamide] |  |  | EC50 (HeLa-ACE2 cells, SARS-CoV-2 infection, 24 h, cells given as a bound): > 1 µM
CC(C)C[C@H](NC(=O)[C@H](O)Cc1ccccc1)C(=O)N[C@@H](C[C@@H]1CCNC1=O)C(=O)COC(F)(F)F [Compound 207, (S)-2-((R)-2-hydroxy-3-phenylpropanamido)-4-methyl-N-((S)-3-oxo-1-((S)-2-oxopyrrolidin-3-yl)-4-(trifluoromethoxy)butan-2-yl)pentanamide] | < 0.05 |  | 
